# Test results reported in the supplement of paper PMC10307832.
# Experiments:
# Assay in all cases: relative viability (nuclei count vs DMSO), 5 days (fraction); higher = more cells survive
# [1] = compound: COc1cc(-c2nn([C@H]3CC[C@H](N4CCN(C(C)=O)CC4)CC3)c3ncnc(N)c23)ccc1NC(=O)c1cc2ccccc2n1C + CCNC(=O)c1noc(-c2cc(C(C)C)c(O)cc2O)c1-c1ccc(CN2CCOCC2)cc1 [Luminespib] (partner 0.01 µM)
# Procedure, shortened: (§1)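 Dosing by pin tool came one day after lung cancer cell lines were seeded in 1536-well plates, using either one drug or a fixed anchor-drug dose plus five library-drug doses (not always all listed) in √10 steps. After 5 days, nuclei were counted on 4× images. Relative viability is treated-well nuclei count divided by vehicle-well nuclei count, and values are medians of duplicate plates.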
# Midostaurin + OSI-027 = compound: CO[C@@H]1[C@H](N(C)C(=O)c2ccccc2)C[C@H]2O[C@]1(C)n1c3ccccc3c3c4c(c5c6ccccc6n2c5c31)C(=O)NC4 [Midostaurin] + COc1cccc2cc(-c3nc([C@H]4CC[C@H](C(=O)O)CC4)n4ncnc(N)c34)[nH]c12 [OSI-027] (partner 0.5 µM)
# Procedure, shortened: as §1
# Midostaurin + Phenformin = compound: CO[C@@H]1[C@H](N(C)C(=O)c2ccccc2)C[C@H]2O[C@]1(C)n1c3ccccc3c3c4c(c5c6ccccc6n2c5c31)C(=O)NC4 [Midostaurin] + N=C(N)NC(=N)NCCc1ccccc1 [Phenformin] (partner 250 µM)
# Procedure, shortened: as §1
# [2] = compound: COc1cc(-c2nn([C@H]3CC[C@H](N4CCN(C(C)=O)CC4)CC3)c3ncnc(N)c23)ccc1NC(=O)c1cc2ccccc2n1C + Nc1nc2[nH]cc(CCc3ccc(C(=O)N[C@@H](CCC(=O)O)C(=O)O)cc3)c2c(=O)[nH]1 [Pemetrexed] (partner 0.2 µM)
# Procedure, shortened: as §1
# Midostaurin + Olaparib = compound: CO[C@@H]1[C@H](N(C)C(=O)c2ccccc2)C[C@H]2O[C@]1(C)n1c3ccccc3c3c4c(c5c6ccccc6n2c5c31)C(=O)NC4 [Midostaurin] + O=C(c1cc(Cc2n[nH]c(=O)c3ccccc23)ccc1F)N1CCN(C(=O)C2CC2)CC1 [Olaparib] (partner 8 µM)
# Procedure, shortened: as §1
cell line,measurement,setting,value
UMC-11,relative viability,[1]; first compound 0.0128 µM,0.928
same,relative viability,[1]; first compound 0.04048 µM,0.956
same,relative viability,[1]; first compound 0.128 µM,0.922
same,relative viability,[1]; first compound 1.28 µM,0.818
same,relative viability,Midostaurin + OSI-027; first compound 0.01 µM,0.473
same,relative viability,Midostaurin + OSI-027; first compound 0.03162 µM,0.463
same,relative viability,Midostaurin + OSI-027; first compound 0.1 µM,0.536
same,relative viability,Midostaurin + OSI-027; first compound 0.3162 µM,0.293
same,relative viability,Midostaurin + Phenformin; first compound 0.01 µM,0.3
same,relative viability,Midostaurin + Phenformin; first compound 0.03162 µM,0.328
same,relative viability,Midostaurin + Phenformin; first compound 0.1 µM,0.32
same,relative viability,Midostaurin + Phenformin; first compound 0.3162 µM,0.281
same,relative viability,[2]; first compound 0.0128 µM,0.694
same,relative viability,[2]; first compound 0.04048 µM,0.865
same,relative viability,[2]; first compound 0.128 µM,0.809
same,relative viability,[2]; first compound 1.28 µM,0.576
same,relative viability,Midostaurin + Olaparib; first compound 0.01 µM,0.354
same,relative viability,Midostaurin + Olaparib; first compound 0.03162 µM,0.387
same,relative viability,Midostaurin + Olaparib; first compound 0.1 µM,0.303
same,relative viability,Midostaurin + Olaparib; first compound 0.3162 µM,0.207
